Measured values as given in patent US20230233704A1, “HYDROGEL COMPOSITION AND ASSOCIATED METHOD OF USE” (Quthero, Inc., priority 2017, published 2023).

Experiments:
HEKs [1] = assay: EarlyTox Cell Integrity assay after H2O2 treatment of HEKs with soluble QHREDGS peptide; format: cell-based, human; conditions: 500 μM H2O2 for 2 h; soluble peptide 100 μM / 650 μM, 2 h pre-conditioning
Method: (§1) HEKs were seeded at a sub-confluent density in a 96-well plate for the cell integrity assay or a 24-well plate for Western blot analysis, and serum starved overnight. The HEKs were then pretreated with soluble QHREDGS (100 μM for Low and 650 μM for High) for 2 h. The cells were then exposed to fresh EpiLife basal medium supplemented with 500 μM H2O2 in the presence or absence of QHREDGS peptide. For the cell integrity assay, the cells were stained using the EarlyTox™ Cell Integrity kit (Molecular Devices) after 2 h of H2O2 treatment. For the Western analysis, another set of wells were seeded in parallel for the Ctrl, Low and High conditions and protein samples were collected after 0, 15 min and 2 h of H2O2 treatment.
The EarlyTox™ Cell Integrity Kit (Molecular Devices, R8213) is based on two nuclear dyes: live red dye is cell permeant and marks both live and dead cells (Excitation: 622 nm/Emission: 645 nm); dead green dye is cell impermeant and stains only cells with damaged outer membranes (Excitation: 503 nm/Emission: 526 nm). […] The plate was then incubated at 37° C. for 30 min and imaged using a SpectraMax i3 plate reader (Molecular Devices). The percentage of viable cells after H2O2 treatment on chitosan-collagen films in the presence or absence of QHREDGS peptide was normalized to the viability percentage of non-treated controls on the same coating film condition.

[2] = system: Primary neonatal human epithelial keratinocytes (HEKs); assay: BrdU proliferation assay of HEKs with soluble QHREDGS peptide; format: cell-based; conditions: soluble peptide Low 100 μM, High 650 μM; 8 h BrdU
Method: (§2) The effect of the QHREDGS peptide as in the soluble form was assessed on HEKs in vitro. 24- or 96-well plates were coated with 0.05 mg/mL type I collagen (BD Biosciences) in 0.02 N acetic acid overnight and then rinsed once with phosphate buffered saline (PBS) (Lonza). HEKs were seeded in complete EpiLife medium and attached for at least 2 h. 100 μM or 650 μM QHREDGS was supplemented to the EpiLife medium as Low or High dosage, respectively.
HEKs were seeded at a density of 1×10^4 cells/cm^2 in collagen-coated 96-well plates. After 4 h, media was removed and replenished with EpiLife media supplemented with 20 μM bromodeoxyuridine (BrdU) (Sigma Aldrich) in the presence or absence of QHREDGS peptide. After incubating for 8 h, proliferating HEKs were identified by BrdU staining. Briefly, HEKs were fixed with 4% paraformaldehyde (PFA), permeablized with 0.25% triton X, treated with DNase for 30 min at 37° C., and blocked with 5% bovine serum albumin (BSA). The HEKs were then incubated with a rat anti-BrdU antibody (AbD Serotec) overnight at 4° C. followed by an anti-rat TRITC-labelled secondary antibody (Jackson Immuno Research). BrdU-positive cells were counted in 5 randomly chosen fields under 20× magnification and then normalized to the total number of cells labelled by 4′,6-diamidino-2-phenylindole (DAPI) counterstaining.

HEKs [3] = assay: HEK migration on collagen coated surfaces with soluble QHREDGS peptide; format: cell-based, human; conditions: soluble peptide 100 μM or 650 μM; collagen-coated surface; 24 h
Method: as §2
Culture-inserts were purchased from Ibidi® and carefully placed on the chitosan-collagen films in 24-wells. HEKs were seeded in complete EpiLife medium at 0.3-0.4×10^6 cells/mL with 70-100 μL per chamber and allowed to attach for 2 h. The culture-inserts were then carefully lifted and the unattached HEKs were immediately removed by rinsing twice using warm PBS. Basal EpiLife medium was then added to the wells and the wells were imaged every 2 h for 8 h and the next day using the SpectraMax i3 plate reader. Confluent HEK monolayers were wounded (time 0) and maintained for 24 h in EpiLife basal medium with 0.12 mM Ca2+. The wounds were outlined and the area at the various time points was normalized to the initial wound size (time 0). After 24 h, HEKs were fixed with 4% paraformaldehyde.

[4] = system: Akt and MAPKp42/44 phosphorylation; assay: Western blotting of HEKs under H2O2 stress with soluble QHREDGS peptide; format: cell-based, human; conditions: 500 μM H2O2, 15 min, soluble peptide 100 μM / 650 μM
Method: as §1
Protein was isolated from keratinocytes in the 24-well plate after H2O2 treatment using 60-80 μL Lysis Buffer per well (10× Cell Lysis Buffer, Cell Signaling Technology; complete Mini, EDTA-free protease inhibitor cocktail tablet, Roche; in ddH2O). Proteins were separated by electrophoresis in Novex Tris-Glycine gels (Life technologies) and transferred using the iBlot (Life technologies) to a PVDF iBlot Transfer Stack (Life technologies). Membranes were probed for phospho-p44/42 MAPK (pMAPKp42/44), p44/42 MAPK (MAPKp42/44), phospho-Akt, Akt, or GAPDH as a loading control (Millipore). All primary antibodies were purchased from Cell Signaling unless stated otherwise. […]

For QHREDGS [QHREDGS peptide], the “percentage of viable HEKs under oxidative stress” value (HEKs [1]) was “significant dose-dependent increase”, the “percentage of proliferating HEKs (BrdU incorporation)” value [2] was “not affected” and the HEK migration rate (HEKs [3]) was “No significant difference”. For the same substance, the “phosphorylation of Akt and MAPKp42/44” value [4] was “increased the phosphorylation of Akt and MAPKp42/44 and the increase was dose-dependent”.
